Consider 15 compounds from US20250101042A1, “KRAS G12D MODULATING COMPOUNDS” (Gilead Sciences, Inc., priority 2023, published 2025).

The target in one assay is GDP-loaded KRAS G12D (Homo sapiens, UniProt P01116, G12D). Nature of the assay: KRAS G12D (GDP) Biochemical Assay (TR-FRET probe displacement). It counts as binding. Conditions: 0.5 nM enzyme, 2 hours at room temperature. The method, then: Example A. KRAS G12D (GDP) Biochemical Assay
Compounds were tested for binding to GDP-loaded KRAS G12D in a 384-well assay format using a TR-FRET probe displacement assay in buffer consisting of 50 mM Hepes (pH 7.4), 150 mM NaCl, 5 mM MgCl2 and 0.005% Tween-20. […] Compounds were serially diluted (1:3) in DMSO. The LabCyte ECHO Acoustic dispenser system was used to pre-spot the assay plates (384-well Non-Binding Surface plates, Corning, Catalog #3824) with 50 nL of compound. The compounds were pre-incubated with 5 μL of 2× final enzyme concentration for 30 minutes before adding 5 μL of 2× final concentration of Eu-streptavidin and TR-FRET probe (10 μL final reaction volume). The plates were incubated at room temperature for 2 hours before measuring TR-FRET ratio on the Envision plate reader. IC50 values were defined as the compound concentration that causes a 50% decrease in TR-FRET ratio and were calculated using a sigmoidal dose-response model to generate curve fits.
Background: TR-FRET usually uses a lanthanide donor and a delayed reading to cut background.

The next assay concerns GP2D (KRAS G12D) cells. Nature of the assay: 2D Cell Viability Assay (CellTiter-Glo). It counts as cell-based. Conditions: 4 days, CellTiter-Glo luminescence. The method, then: Example B. 2D Cell Viability Assay
Compounds were tested in a 384-well format for their ability to inhibit the viability of GP2D (KRAS G12D) cells in 2D assays. Compounds were serially diluted (1:3) in DMSO. The LabCyte ECHO Acoustic dispenser system was used to pre-spot assay plates with 200 nL of test molecule per well. 1000 cells/well (40 μL volume per well) in RPMI medium with 10% FBS, and Penicillin-Streptomycin-Glutamine were plated in pre-spotted 384-well plates (Greiner, Catalog #781076) on the BioTEK EL406 liquid dispenser with a 5 μL dispensing cassette (BioTek 7170011). The plates were incubated at 37° C., 5% CO2 for 4 days before addition of CellTiter-Glo (CTG) reagent and measurement of luminescence signal. EC50 values were defined as the compound concentration that causes a 50% decrease in luminescence signal and were calculated using a sigmoidal dose-response model to generate curve fits.

SMILES strings stand for the structures.

GDP-loaded KRAS G12D, sequence (P01116 1-188 isoform P01116-2 G12D): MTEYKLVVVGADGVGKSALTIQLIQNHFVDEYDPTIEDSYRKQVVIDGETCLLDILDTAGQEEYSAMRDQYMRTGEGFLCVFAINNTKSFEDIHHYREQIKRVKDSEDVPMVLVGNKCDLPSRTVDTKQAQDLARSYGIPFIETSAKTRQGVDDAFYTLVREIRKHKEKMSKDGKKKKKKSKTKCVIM

As a reminder, the IC50 is the concentration needed to halve the response being measured. Lower therefore signals greater potency in that assay. The EC50 is the concentration needed to bring the measured effect to its halfway point. Low values mean greater potency, high ones weaker potency. `N#Cc1c(N)sc2c(F)ccc(-c3c(F)c4c5c(nc(OC[C@@]67CCCN6C[C@H](F)C7)nc5c3F)N3C[C@H]5CC[C@H](N5)[C@H]3CC4)c12` (single isomer, unassigned) [Example 59] displayed an IC50 on GDP-loaded KRAS G12D of 4.2 nM. Further, the EC50 in the assay on GP2D (KRAS G12D) cells is 24 nM.

At GDP-loaded KRAS G12D, `N#Cc1c(N)sc2c(F)ccc(-c3c(F)c4c5c(nc(OC[C@@]67CCCN6C[C@H](F)C7)nc5c3F)N3C[C@H]5CC[C@H](N5)[C@H]3CC4)c12` (single isomer, unassigned) [Example 60] came in with an IC50 of 0.03 nM. The EC50 in the assay on GP2D (KRAS G12D) cells came to 1.8 nM.

`Cc1cc(N)nc(-c2nc3c4c(nc(OC[C@@]56CCCN5C[C@H](F)C6)nc4c2F)N2C[C@H]4CC[C@H](N4)[C@H]2CC3)c1C(F)(F)F` [Example 1, 6-((5aR,6S,9R)-1-fluoro-12-(((2R,7aS)-2-fluorotetrahydro-1H-pyrrolizin-7a(5H)-yl)methoxy)-4,5,5a,6,7,8,9,10-octahydro-3,10a,11,13,14-pentaaza-6,9-methanonaphtho[1,8-ab]heptalen-2-yl)-4-methyl-5-(trifluoromethyl)pyridin-2-amine] returned an IC50 on GDP-loaded KRAS G12D of 0.84 nM. For the same compound, the EC50 in the assay with GP2D (KRAS G12D) cells (GP2d, 96 h) was 16 nM.

On GDP-loaded KRAS G12D, `Cc1cc(N)nc(-c2nc3c4c(nc(OC[C@@]56CCCN5C[C@H](F)C6)nc4c2F)N2C[C@H]4CC[C@H](N4)[C@@H]2CC3)c1C(F)(F)F` [Example 4, 6-((5aS,6S,9R)-1-fluoro-12-(((2R,7aS)-2-fluorotetrahydro-1H-pyrrolizin-7a(5H)-yl)methoxy)-4,5,5a,6,7,8,9,10-octahydro-3,10a,11,13,14-pentaaza-6,9-methanonaphtho[1,8-ab]heptalen-2-yl)-4-methyl-5-(trifluoromethyl)pyridin-2-amine] showed an IC50 of 62 nM. This compound gave an EC50 in the assay on GP2D (KRAS G12D) cells (GP2d, 96 h) above 100 nM.

On to `Cc1cc(N)nc(-c2nc3c4c(nc(OC[C@@]56CCCN5C[C@H](F)C6)nc4c2F)N2C[C@H]4CC[C@H](N4)[C@H]2CCC3)c1C(F)(F)F` [Example 7, 6-((6aR,7S,10R)-1-fluoro-13-(((2R,7aS)-2-fluorotetrahydro-1H-pyrrolizin-7a(5H)-yl)methoxy)-5,6,6a,7,8,9,10,11-octahydro-4H-3,11a,12,14,15-pentaaza-7,10-methanocyclohepta[4,5]cycloocta[1,2,3-de]naphthalen-2-yl)-4-methyl-5-(trifluoromethyl)pyridin-2-amine], for which, at GDP-loaded KRAS G12D, the IC50 amounted to 0.7 nM. Further, the EC50 in the assay on GP2D (KRAS G12D) cells (GP2d, 96 h) was determined as 11 nM.

As for `Cc1cc(N)[n+]([O-])c(-c2nc3c4c(nc(OC[C@@]56CCCN5C[C@H](F)C6)nc4c2F)N2C[C@H]4CC[C@H](N4)[C@H]2CCC3)c1C(F)(F)F` [Example 8, 6-amino-2-((6aR,7S,10R)-1-fluoro-13-(((2R,7aS)-2-fluorotetrahydro-1H-pyrrolizin-7a(5H)-yl)methoxy)-5,6,6a,7,8,9,10,11-octahydro-4H-3,11a,12,14,15-pentaaza-7,10-methanocyclohepta[4,5]cycloocta[1,2,3-de]naphthalen-2-yl)-4-methyl-3-(trifluoromethyl)pyridine 1-oxide], the IC50 at GDP-loaded KRAS G12D is above 100 nM. The compound also showed an EC50 in the assay with GP2D (KRAS G12D) cells (GP2d, 96 h) above 100 nM.

Compound `Cc1cc(N)nc(-c2cc3c4c(nc(OC[C@@]56CCCN5C[C@H](F)C6)nc4c2F)N2C[C@H]4CC[C@H](N4)[C@H]2CC3)c1C(F)(F)F` [Example 9, 6-((1S,4R,14aR)-10-fluoro-8-(((2R,7aS)-2-fluorotetrahydro-1H-pyrrolizin-7a(5H)-yl)methoxy)-1,2,3,4,5,13,14,14a-octahydro-1,4-epiminoazepino[1′,2′:1,7]azepino[2,3,4-de]quinazolin-11-yl)-4-methyl-5-(trifluoromethyl)pyridin-2-amine] returned an IC50 on GDP-loaded KRAS G12D of 2.5 nM. In the assay with GP2D (KRAS G12D) cells (GP2d, 96 h), this compound showed a half-maximal effective concentration (EC50) of 37 nM.

`Cc1cc(N)nc(-c2c(C)c3c4c(nc(OC[C@@]56CCCN5C[C@H](F)C6)nc4c2F)N2C[C@H]4CC[C@H](N4)[C@H]2CC3)c1C(F)(F)F` [Example 10, 6-((1S,4R,14aR)-10-fluoro-8-(((2R,7aS)-2-fluorotetrahydro-1H-pyrrolizin-7a(5H)-yl)methoxy)-12-methyl-1,2,3,4,5,13,14,14a-octahydro-1,4-epiminoazepino[1′,2′:1,7]azepino[2,3,4-de]quinazolin-11-yl)-4-methyl-5-(trifluoromethyl)pyridin-2-amine] returned an IC50 on GDP-loaded KRAS G12D of 0.29 nM. The half-maximal effective concentration (EC50) with GP2D (KRAS G12D) cells (GP2d, 96 h) is 10 nM.

As to `Cc1c(F)c(N)nc(-c2nc3c4c(nc(OC[C@@]56CCCN5C[C@H](F)C6)nc4c2F)N2C[C@H]4CC[C@H](N4)[C@H]2CCC3)c1C(F)(F)F` [Example 11, 3-fluoro-6-((6aR,7S,10R)-1-fluoro-13-(((2R,7aS)-2-fluorotetrahydro-1H-pyrrolizin-7a(5H)-yl)methoxy)-5,6,6a,7,8,9,10,11-octahydro-4H-3,11a,12,14,15-pentaaza-7,10-methanocyclohepta[4,5]cycloocta[1,2,3-de]naphthalen-2-yl)-4-methyl-5-(trifluoromethyl)pyridin-2-amine], the IC50 at GDP-loaded KRAS G12D is 12 nM. Also, the EC50 with GP2D (KRAS G12D) cells (GP2d, 96 h) was found to be 34 nM.

Compound `N#Cc1c(N)sc2cccc(-c3nc4c5c(nc(OC[C@@]67CCCN6C[C@H](F)C7)nc5c3F)N3C[C@H]5CC[C@H](N5)[C@H]3CCC4)c12` [Example 12, 2-amino-4-((6aR,7S,10R)-1-fluoro-13-(((2R,7aS)-2-fluorotetrahydro-1H-pyrrolizin-7a(5H)-yl)methoxy)-5,6,6a,7,8,9,10,11-octahydro-4H-3,11a,12,14,15-pentaaza-7,10-methanocyclohepta[4,5]cycloocta[1,2,3-de]naphthalen-2-yl)benzo[b]thiophene-3-carbonitrile] returned an IC50 at GDP-loaded KRAS G12D of 0.17 nM. In the assay on GP2D (KRAS G12D) cells (GP2d, 96 h), this compound returned an EC50 of 3.5 nM.

For `C[C@H]1Cc2nc(-c3cccc4sc(N)c(C#N)c34)c(F)c3nc(OC[C@@]45CCCN4C[C@H](F)C5)nc(c23)N2C[C@H]3CC[C@H](N3)[C@H]12` [Example 13, 2-amino-4-((5S,5aS,6S,9R)-1-fluoro-12-(((2R,7aS)-2-fluorotetrahydro-1H-pyrrolizin-7a(5H)-yl)methoxy)-5-methyl-4,5,5a,6,7,8,9,10-octahydro-3,10a,11,13,14-pentaaza-6,9-methanonaphtho[1,8-ab]heptalen-2-yl)benzo[b]thiophene-3-carbonitrile], the IC50 on GDP-loaded KRAS G12D was found to be 0.45 nM. For the same compound, the EC50 in the assay on GP2D (KRAS G12D) cells (GP2d, 96 h) turned out to be 2 nM.

`Cc1cc(N)nc(-c2c(Br)c3c4c(nc(OC[C@@]56CCCN5C[C@H](F)C6)nc4c2F)N2C[C@H]4CC[C@H](N4)[C@H]2CC3)c1C(F)(F)F` [Example 14, 6-((1S,4R,14aR)-12-bromo-10-fluoro-8-(((2R,7aS)-2-fluorotetrahydro-1H-pyrrolizin-7a(5H)-yl)methoxy)-1,2,3,4,5,13,14,14a-octahydro-1,4-epiminoazepino[1′,2′:1,7]azepino[2,3,4-de]quinazolin-11-yl)-4-methyl-5-(trifluoromethyl)pyridin-2-amine] came in with an IC50 on GDP-loaded KRAS G12D of 0.24 nM. Further, in the assay with GP2D (KRAS G12D) cells (GP2d, 96 h), the EC50 is 2.5 nM.

Turning to `C=Cc1c(-c2nc(N)cc(C)c2C(F)(F)F)c(F)c2nc(OC[C@@]34CCCN3C[C@H](F)C4)nc3c2c1CC[C@@H]1[C@@H]2CC[C@H](CN31)N2` [Example 15, 6-((1S,4R,14aR)-10-fluoro-8-(((2R,7aS)-2-fluorotetrahydro-1H-pyrrolizin-7a(5H)-yl)methoxy)-12-vinyl-1,2,3,4,5,13,14,14a-octahydro-1,4-epiminoazepino[1′,2′:1,7]azepino[2,3,4-de]quinazolin-11-yl)-4-methyl-5-(trifluoromethyl)pyridin-2-amine], at GDP-loaded KRAS G12D, the IC50 turned out to be 0.43 nM. The same compound registered an EC50 with GP2D (KRAS G12D) cells (GP2d, 96 h) of 24 nM.

In turn, `CCc1c(-c2nc(N)cc(C)c2C(F)(F)F)c(F)c2nc(OC[C@@]34CCCN3C[C@H](F)C4)nc3c2c1CC[C@@H]1[C@@H]2CC[C@H](CN31)N2` [Example 16, 6-((1S,4R,14aR)-12-ethyl-10-fluoro-8-(((2R,7aS)-2-fluorotetrahydro-1H-pyrrolizin-7a(5H)-yl)methoxy)-1,2,3,4,5,13,14,14a-octahydro-1,4-epiminoazepino[1′,2′:1,7]azepino[2,3,4-de]quinazolin-11-yl)-4-methyl-5-(trifluoromethyl)pyridin-2-amine] yielded an IC50 at GDP-loaded KRAS G12D of 0.82 nM. The same compound registered an EC50 in the assay with GP2D (KRAS G12D) cells (GP2d, 96 h) of 20 nM.

At GDP-loaded KRAS G12D, `Cc1cc(N)nc(-c2nc3c4c(nc(OC[C@@]56CCCN5C[C@H](F)C6)nc4c2F)N2C[C@H]4CC[C@H](N4)[C@@H]2[C@@H](C)C3)c1C(F)(F)F` [Example 17, 6-((5S,5aS,6S,9R)-1-fluoro-12-(((2R,7aS)-2-fluorotetrahydro-1H-pyrrolizin-7a(5H)-yl)methoxy)-5-methyl-4,5,5a,6,7,8,9,10-octahydro-3,10a,11,13,14-pentaaza-6,9-methanonaphtho[1,8-ab]heptalen-2-yl)-4-methyl-5-(trifluoromethyl)pyridin-2-amine] returned an IC50 of 6.1 nM. In the assay with GP2D (KRAS G12D) cells (GP2d, 96 h), this compound had an EC50 of 25 nM.
